Results published in patent publication US7628979B1, “Use of calco oil blue V in bait formulations for marking and controlling subterranean termites” (The United States of America as represented by the …, priority 2005, dated 2009).

Tests used:
[1] = test system: Formosan subterranean termites; test: In-field marking and control, bait at infested trees, sites 1 and 2; assay type: in vivo; settings: 250 ppm bait
Text: (§1) Formosan subterranean termite and native subterranean termite infested trees (Water Oaks and Legastrums) in New Orleans, La. were chosen for this study. Three sites were selected located at the Southern Regional Research Center campus. Site 1 was located near the service building next to an old water oak tree, site 2 was located in the compound area near ligastrum trees, and site 3 near ligastrum trees outside the compound area. Sites 1 and 2 were active with Formosan subterranean termites and site 3 with Eastern subterranean termites.
(§2) The colored bait matrix at 250 ppm was encapsulated as described above and placed directly in the base of the trees where termites were foraging, making sure that the encapsulated colored bait matrix was covered with soil or with a piece of wood or brick on top of it to prevent desiccation. The bait was periodically inspected for consumption and termite activity. The field study started in early August and was completed by the end of the following June. During winter (December-February) termite activity decreased considerably, but by April termite activity and foraging resumed and the blue colored matrix was replaced by bait formulation containing 250 ppm of chitin synthesis inhibitors to kill the colonies. Diflubenzuron was used in 2 of the sites and chlorfluazuron was used in the remaining site.

[2] = test system: Eastern subterranean termites; test: In-field marking and control, bait at infested trees, site 3; assay type: in vivo; settings: Site 3 (Ligastrum), 250 ppm bait
Text: as §1, §2

`O=C(NC(=O)c1c(F)cccc1F)Nc1cc(Cl)c(Oc2ncc(C(F)(F)F)cc2Cl)c(Cl)c1` [Chlorfluazuron, 1-[3,5-dichloro-4-(3-chloro-5-trifluoromethyl-2-pyridyloxy)phenyl]-3-(2,6-difluorobenzoyl)urea, reference compound] was tested, and the “Bait consumption” value ([1]; Site 2 (Ligastrum), day 7) was 0 g, the “Bait consumption” value ([1]; Site 2 (Ligastrum), day 14) was 0 g and the “Bait consumption” value ([1]; Site 2 (Ligastrum), day 21) was 0 g. For the same compound, the “Bait consumption” value ([1]; Site 2 (Ligastrum), day 27) was 0 g, the “Bait consumption” value ([1]; Site 2 (Ligastrum), day 46) was 0 g and the “Bait consumption” value ([1]; Site 2 (Ligastrum), day 56) was 0 g. For the same compound, the “Bait consumption” value ([1]; Site 2 (Ligastrum), day 73) was 0 g, the “Bait consumption” value ([1]; Site 2 (Ligastrum), day 83) was 0 g and the “Bait consumption” value ([1]; Site 2 (Ligastrum), day 102) was 0 g. The “Bait consumption” value ([1]; Site 2 (Ligastrum), day 159) was 0 g, the “Bait consumption” value ([1]; Site 2 (Ligastrum), day 221) was 0 g and the “Bait consumption” value ([1]; Site 2 (Ligastrum), day 251) was 450 g. For the same compound, the “Bait consumption” value ([1]; Site 2 (Ligastrum), day 281) was 750 g.
`O=C(NC(=O)c1c(F)cccc1F)Nc1ccc(Cl)cc1` [Diflubenzuron, 1-(4-chlorophenyl)-3-(2,6-difluorobenzoyl)urea, reference compound] was tested, and the “Bait consumption” value ([2]; day 7) was 0 g, the “Bait consumption” value ([2]; day 14) was 0 g and the “Bait consumption” value ([2]; day 21) was 0 g. For the same compound, the “Bait consumption” value ([2]; day 27) was 0 g, the “Bait consumption” value ([2]; day 46) was 0 g and the “Bait consumption” value ([2]; day 56) was 0 g. For the same compound, the “Bait consumption” value ([2]; day 73) was 0 g, the “Bait consumption” value ([2]; day 83) was 0 g and the “Bait consumption” value ([2]; day 102) was 0 g. For the same compound, the “Bait consumption” value ([2]; day 159) was 0 g, the “Bait consumption” value ([2]; day 221) was 0 g and the “Bait consumption” value ([2]; day 251) was 150 g. For the same compound, the “Bait consumption” value ([2]; day 281) was 300 g, the “Bait consumption” value ([1]; Site 1 (Water Oak), day 7) was 0 g and the “Bait consumption” value ([1]; Site 1 (Water Oak), day 14) was 0 g. The “Bait consumption” value ([1]; Site 1 (Water Oak), day 21) was 0 g, the “Bait consumption” value ([1]; Site 1 (Water Oak), day 27) was 0 g and the “Bait consumption” value ([1]; Site 1 (Water Oak), day 46) was 0 g. The “Bait consumption” value ([1]; Site 1 (Water Oak), day 56) was 0 g, the “Bait consumption” value ([1]; Site 1 (Water Oak), day 73) was 0 g and the “Bait consumption” value ([1]; Site 1 (Water Oak), day 83) was 0 g. The “Bait consumption” value ([1]; Site 1 (Water Oak), day 102) was 0 g, the “Bait consumption” value ([1]; Site 1 (Water Oak), day 159) was 0 g and the “Bait consumption” value ([1]; Site 1 (Water Oak), day 221) was 0 g. The “Bait consumption” value ([1]; Site 1 (Water Oak), day 251) was 150 g and the “Bait consumption” value ([1]; Site 1 (Water Oak), day 281) was 300 g.
